Measurements: PubChem BioAssay AID248 (DTP/NCI, 2004)
Where “and” joins values, the source holds several entries; their conditions need not be identical. Equal entries are not always repeated. Toxic doses and inconclusive results are not listed. Rule as the data show it: active = T/C of 150% or more; inactive = T/C below 125%.

Tested on: L1210 leukemia ip in BDF1 mice, survival T/C
Test: NCI In Vivo Anticancer Drug Screen. Data for tumor model L1210 Leukemia (intraperitoneal) in B6D2F1 (BDF1) mice
Conditions: endpoint: mean survival time, higher = longer survival
How it was run: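 Transplantable tumor model; survival measured in treated vs vehicle control mice. Value = treated/control.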

[1] = dose: 100.0 mg/kg/injection, schedule: Q04DX003 (ip), vehicle: saline
[2] = dose: 200.0 mg/kg/injection, schedule: Q04DX003 (ip), vehicle: saline
[3] = dose: 400.0 mg/kg/injection, schedule: Q04DX003 (ip), vehicle: saline
[4] = dose: 100.0 mg/kg/injection, schedule: Q01DX009 (ip), vehicle: saline with Tween-80
[5] = dose: 100.0 mg/kg/injection, schedule: Q04DX003 (ip), vehicle: saline with Tween-80
[6] = dose: 200.0 mg/kg/injection, schedule: Q04DX003 (ip), vehicle: saline with Tween-80
[7] = dose: 100.0 mg/kg/injection, schedule: Q01DX009 (ip), vehicle: Klucel (hydroxypropylcellulose) (HPC)
[8] = dose: 100.0 mg/kg/injection, schedule: Q04DX003 (ip), vehicle: Klucel (hydroxypropylcellulose) (HPC)
[9] = dose: 200.0 mg/kg/injection, schedule: Q01DX009 (ip), vehicle: Klucel (hydroxypropylcellulose) (HPC)
[10] = dose: 200.0 mg/kg/injection, schedule: Q04DX003 (ip), vehicle: Klucel (hydroxypropylcellulose) (HPC)
[11] = dose: 400.0 mg/kg/injection, schedule: Q04DX003 (ip), vehicle: Klucel (hydroxypropylcellulose) (HPC)

Measured: T/C

CCCCCCCCCCCCCCOS(=O)(=O)O
inactive: dose: 37.5 mg/kg/injection, schedule: Q04DX003 (ip), vehicle: saline 100 % of control | dose: 75.0 mg/kg/injection, schedule: Q01DX001 (ip), vehicle: saline 95 % of control | dose: 75.0 mg/kg/injection, schedule: Q04DX003 (ip), vehicle: saline 94 % of control | dose: 150.0 mg/kg/injection, schedule: Q01DX001 (ip), vehicle: saline 92 % of control | dose: 150.0 mg/kg/injection, schedule: Q04DX003 (ip), vehicle: saline 92 % of control

CCOc1nsc(OCC)n1
inactive: dose: 75.0 mg/kg/injection, schedule: Q01DX009 (ip), vehicle: other 103 % of control | [1] 98 % of control | dose: 150.0 mg/kg/injection, schedule: Q01DX009 (ip), vehicle: other 107 % of control | [2] 101 % of control | dose: 300.0 mg/kg/injection, schedule: Q01DX009 (ip), vehicle: other 93 % of control | [3] 103 % of control

COc1ccc(CCC(=O)O)cc1
inactive: dose: 50.0 mg/kg/injection, schedule: Q04DX003 (ip), vehicle: gum acacia 98 % of control | dose: 100.0 mg/kg/injection, schedule: Q04DX003 (ip), vehicle: gum acacia 98 % of control | dose: 200.0 mg/kg/injection, schedule: Q04DX003 (ip), vehicle: gum acacia 95 % of control

CCCOC(C(=O)OC1CCN(C)CC1)(c1ccccc1)c1ccccc1
inactive: dose: 12.5 mg/kg/injection, schedule: Q01DX009 (ip), vehicle: saline 98 % of control | dose: 25.0 mg/kg/injection, schedule: Q01DX009 (ip), vehicle: saline 102 % of control | dose: 50.0 mg/kg/injection, schedule: Q01DX009 (ip), vehicle: saline 94 % of control

O=c1cc(Nc2ccccc2)[nH]c(=O)[nH]1
inactive: dose: 100.0 mg/kg/injection, schedule: Q01DX001 (ip), vehicle: Klucel (hydroxypropylcellulose) (HPC) 92 % of control | dose: 200.0 mg/kg/injection, schedule: Q01DX001 (ip), vehicle: Klucel (hydroxypropylcellulose) (HPC) 93 % of control | dose: 400.0 mg/kg/injection, schedule: Q01DX001 (ip), vehicle: Klucel (hydroxypropylcellulose) (HPC) 95 % of control

O=C(NC(=S)Nc1cccc(O)c1)c1ccco1
inactive: [4] 98 % of control | [5] 104 % of control | dose: 200.0 mg/kg/injection, schedule: Q01DX009 (ip), vehicle: saline with Tween-80 115 % of control | [6] 107 % of control | dose: 400.0 mg/kg/injection, schedule: Q01DX009 (ip), vehicle: saline with Tween-80 95 % of control | dose: 400.0 mg/kg/injection, schedule: Q04DX003 (ip), vehicle: saline with Tween-80 102 % of control

C[N+](C)(Cc1ccc(F)cc1)C1c2ccccc2-c2ccccc21
inactive: dose: 6.25 mg/kg/injection, schedule: Q04DX003 (ip), vehicle: saline with Tween-80 90 % of control | dose: 25.0 mg/kg/injection, schedule: Q04DX003 (ip), vehicle: saline with Tween-80 89 % of control

CC(=O)CCC[CH2][Sn]([c]1ccccc1)([c]1ccccc1)[c]1ccccc1
inactive: dose: 100.0 mg/kg/injection, schedule: Q04DX002 (ip), vehicle: saline with Tween-80 102 % of control | dose: 200.0 mg/kg/injection, schedule: Q04DX002 (ip), vehicle: saline with Tween-80 91 % of control | dose: 400.0 mg/kg/injection, schedule: Q04DX002 (ip), vehicle: saline with Tween-80 97 % of control

CCOC(=O)CCc1ccc2c(c1)OCO2
inactive: [1] 103 % of control | [2] 101 % of control | [3] 95 % of control

COC(=O)C(C)(N)Cc1ccc(O)c(C)c1 (centres undefined)
inactive: [7] 96 % of control | [8] 108 % of control | [9] 100 % of control | [10] 101 % of control | [11] 95 % of control

CC(=O)CP(=O)(O)O
inactive: dose: 100.0 mg/kg/injection, schedule: Q04DX002 (ip), vehicle: saline 97 % of control | dose: 200.0 mg/kg/injection, schedule: Q04DX002 (ip), vehicle: saline 94 % of control | dose: 400.0 mg/kg/injection, schedule: Q04DX002 (ip), vehicle: saline 94 % of control

Cn1nc(CC(=O)O)c(C(N)=O)c1N
inactive: dose: 12.5 mg/kg/injection, schedule: Q01DX009 (ip), vehicle: Klucel (hydroxypropylcellulose) (HPC) 93 % of control | dose: 25.0 mg/kg/injection, schedule: Q01DX009 (ip), vehicle: Klucel (hydroxypropylcellulose) (HPC) 101 % of control | dose: 50.0 mg/kg/injection, schedule: Q01DX009 (ip), vehicle: Klucel (hydroxypropylcellulose) (HPC) 96 % of control and 102 % of control | [9] 98 % of control

Nc1nc(N)c(CCCCc2ccccc2)c(C=O)n1
inactive: [7] 98 % of control

CCCCCCCCCCCCN1CCCC(O)C1 (centres undefined)
inactive: [5] 93 % of control | [6] 88 % of control

CC1(C)CN1P(=O)(Oc1ccccc1)N1CC1(C)C (centres undefined)
inactive: dose: 88.0 mg/kg/injection, schedule: Q01DX001 (ip), vehicle: carboxymethylcellulose (CMC) 111 % of control

O=C(CC(O)(C(F)(F)F)C(F)(F)F)c1ccc([N+](=O)[O-])cc1
inactive: dose: 50.0 mg/kg/injection, schedule: Q04DX003 (ip), vehicle: other 102 % of control | dose: 100.0 mg/kg/injection, schedule: Q04DX003 (ip), vehicle: other 100 % of control | dose: 200.0 mg/kg/injection, schedule: Q04DX003 (ip), vehicle: other 100 % of control | dose: 400.0 mg/kg/injection, schedule: Q04DX003 (ip), vehicle: other 104 % of control

CC1CC(C)(C)CC2(C1)OCC(CCl)O2 (centres undefined)
inactive: dose: 100.0 mg/kg/injection, schedule: Q04DX003 (ip), vehicle: saline sonified 100 % of control | dose: 200.0 mg/kg/injection, schedule: Q04DX003 (ip), vehicle: saline sonified 98 % of control | dose: 400.0 mg/kg/injection, schedule: Q04DX003 (ip), vehicle: saline sonified 96 % of control

Cc1nc(Cl)c(C(N)=O)nc1C
inactive: dose: 25.0 mg/kg/injection, schedule: Q01DX009 (ip), vehicle: saline with Tween-80 91 % of control | dose: 50.0 mg/kg/injection, schedule: Q01DX009 (ip), vehicle: saline with Tween-80 96 % of control | [4] 96 % of control and 97 % of control

CCN(CC)CN1C(=O)C(=O)c2ccccc21
inactive: dose: 100.0 mg/kg/injection, schedule: Q01DX001 (ip), vehicle: steriod suspending solution 92 % of control | dose: 200.0 mg/kg/injection, schedule: Q01DX001 (ip), vehicle: steriod suspending solution 108 % of control | dose: 400.0 mg/kg/injection, schedule: Q01DX001 (ip), vehicle: steriod suspending solution 114 % of control

COC(=O)C1C2C(C)CC3(CC12C)OCCO3 (centres undefined)
inactive: dose: 100.0 mg/kg/injection, schedule: Q01DX009 (ip), vehicle: saline sonified 92 % of control | [8] 102 % of control | dose: 200.0 mg/kg/injection, schedule: Q01DX009 (ip), vehicle: saline sonified 97 % of control | [10] 93 % of control | dose: 400.0 mg/kg/injection, schedule: Q01DX009 (ip), vehicle: saline sonified 92 % of control | [11] 86 % of control

COC1=CC(=O)C2=C(C1=O)C1(C)CCCC(C)(COC(C)=O)C1CC2 (centres undefined)
inactive: dose: 200.0 mg/kg/injection, schedule: Q01DX001 (ip), vehicle: carboxymethylcellulose (CMC) 95 % of control | dose: 400.0 mg/kg/injection, schedule: Q01DX001 (ip), vehicle: carboxymethylcellulose (CMC) 88 % of control

O=C(OC(=Nc1ccccc1)N(c1ccccc1)c1ccccc1)c1ccccc1
inactive: dose: 100.0 mg/kg/injection, schedule: Q01DX001 (ip), vehicle: saline 91 % of control | dose: 200.0 mg/kg/injection, schedule: Q01DX001 (ip), vehicle: saline 95 % of control | dose: 400.0 mg/kg/injection, schedule: Q01DX001 (ip), vehicle: saline 94 % of control
